Legend:
Assay in all cases: relative viability (nuclei count vs DMSO), 5 days (fraction); higher = more cells survive
[1] = compound: CCC1=CN=CN=C1N2CCN(CC2)CC3=NC4=C(N3)C=C(C=C4)C(F)(F)F + N=C(N)NC(=N)NCCc1ccccc1 [Phenformin] (partner 250 µM)
Procedure, shortened: (§1)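 Lung cancer cell lines in 1536-well plates got either a single drug or a fixed anchor-drug dose together with five library-drug doses (not always all listed) in √10 steps, by pin tool, on the day after seeding. Nuclei were counted after 5 days, and relative viability is the treated-to-vehicle ratio of nuclei counts. Values are medians of duplicate plates.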

[2] = compound: CCC1=CN=CN=C1N2CCN(CC2)CC3=NC4=C(N3)C=C(C=C4)C(F)(F)F + Nc1ncn([C@H]2C[C@H](O)[C@@H](CO)O2)c(=O)n1 [Decitabine] (partner 2 µM)
Procedure, shortened: as §1

[3] = compound: CCn1c(-c2nonc2N)nc2cnc(Oc3cccc(NC(=O)c4ccc(OCCN5CCOCC5)cc4)c3)cc21 + Cc1nc(NC(=O)N2CCC[C@H]2C(N)=O)sc1-c1ccnc(C(C)(C)C(F)(F)F)c1 [Alpelisib] (partner 2 µM)
Procedure, shortened: as §1

Mirin + Lapatinib = compound: N=C1NC(=O)/C(=C/c2ccc(O)cc2)S1 [Mirin] + CS(=O)(=O)CCNCc1ccc(-c2ccc3ncnc(Nc4ccc(OCc5cccc(F)c5)c(Cl)c4)c3c2)o1 [Lapatinib] (partner 2 µM)
Procedure, shortened: as §1

Row | Cell Line | relative viability ([1]; first compound 0.04 µM) | relative viability ([1]; first compound 0.1265 µM) | relative viability ([1]; first compound 0.4 µM) | relative viability ([1]; first compound 1.265 µM) | relative viability ([1]; first compound 4 µM) | relative viability ([2]; first compound 0.04 µM) | relative viability ([2]; first compound 0.1265 µM) | relative viability ([2]; first compound 0.4 µM) | relative viability ([2]; first compound 1.265 µM) | relative viability ([2]; first compound 4 µM) | relative viability ([3]; first compound 0.04 µM) | relative viability ([3]; first compound 0.1265 µM) | relative viability ([3]; first compound 0.4 µM) | relative viability ([3]; first compound 1.265 µM) | relative viability ([3]; first compound 4 µM) | relative viability (Mirin + Lapatinib; first compound 0.25 µM) | relative viability (Mirin + Lapatinib; first compound 0.7906 µM) | relative viability (Mirin + Lapatinib; first compound 2.5 µM) | relative viability (Mirin + Lapatinib; first compound 7.906 µM) | relative viability (Mirin + Lapatinib; first compound 25 µM)
1 | NCI-H358 | 0.345 | 0.289 | 0.372 | 0.317 | 0.349 | 0.206 | 0.204 | 0.158 | 0.174 | 0.217 | 1.01 | 1.04 | 0.792 | 0.65 | 0.42 | 0.466 | 0.514 | 0.489 | 0.52 | 0.379
2 | RERF-LC-KJ | 0.407 | 0.382 | 0.467 | 0.366 | 0.41 | 0.638 | 0.627 | 0.745 | 0.577 | 0.611 | 0.846 | 0.809 | 0.733 | 0.662 | 0.507 | 0.972 | 0.968 | 0.891 | 0.835 | 0.95
3 | NCI-H1792 | 0.382 | 0.259 | 0.162 |  | 0.222 | 0.543 | 0.437 | 0.57 |  | 0.523 | 0.84 | 0.773 |  | 0.551 | 0.629 | 0.891 | 0.814 | 0.97 | 0.829 | 0.942
4 | NCI-H647 | 0.555 | 0.589 | 0.518 | 0.461 | 0.626 | 0.449 | 0.273 | 0.356 | 0.325 | 0.301 | 1.04 | 0.746 | 0.795 | 0.657 | 0.577 | 1.31 | 1.09 | 1.07 | 1.1 | 0.427
5 | SK-LU-1 | 0.523 | 0.534 | 0.509 | 0.385 | 0.579 | 0.512 | 0.6 | 0.623 | 0.605 | 0.614 | 1.17 | 0.821 | 0.599 | 0.42 | 0.349 | 0.974 | 0.88 | 0.792 | 0.788 | 0.541
6 | NCI-H441 | 0.699 | 0.874 | 0.718 | 0.868 | 0.833 | 0.239 | 0.212 | 0.21 | 0.264 | 0.315 | 0.688 | 0.834 | 0.68 | 0.599 | 0.44 |  |  |  |  | 
7 | COR-L 105 | 0.629 | 0.403 | 0.536 | 0.401 | 0.502 | 0.665 | 0.652 | 0.698 | 0.541 | 0.669 | 1.08 | 0.694 | 0.938 | 0.596 | 0.459 | 0.346 | 0.274 | 0.392 | 0.367 | 0.306
8 | NCI-H1993 | 0.551 | 0.461 | 0.496 | 0.537 | 0.579 | 0.563 | 0.62 | 0.621 | 0.522 | 0.51 | 0.758 | 0.77 |  | 0.719 | 0.668 | 0.856 | 0.784 | 0.887 | 0.976 | 0.81
